Data reported in US7378425B2, “(1-Indanone)-(1,2,3,6-tetrahydropyridine) compounds” (Eisai R & D Management Co., Ltd., priority 2002, dated 2008).
pIC50: −log10 of the molar value. Counter-ions that a name gives are not always drawn. Like-named read-outs stand apart in the source and are kept apart here.

How the values were obtained:
[1] = target: T1, acetylcholinesterase (rat brain homogenate) (Rattus norvegicus, UniProt P37136); assay: biochemical
T1 construct: Using a rat brain homogenate as a source of acetylcholinesterase; from tissue; host or cells: rat brain homogenate
T1 sequence (P37136 32-614): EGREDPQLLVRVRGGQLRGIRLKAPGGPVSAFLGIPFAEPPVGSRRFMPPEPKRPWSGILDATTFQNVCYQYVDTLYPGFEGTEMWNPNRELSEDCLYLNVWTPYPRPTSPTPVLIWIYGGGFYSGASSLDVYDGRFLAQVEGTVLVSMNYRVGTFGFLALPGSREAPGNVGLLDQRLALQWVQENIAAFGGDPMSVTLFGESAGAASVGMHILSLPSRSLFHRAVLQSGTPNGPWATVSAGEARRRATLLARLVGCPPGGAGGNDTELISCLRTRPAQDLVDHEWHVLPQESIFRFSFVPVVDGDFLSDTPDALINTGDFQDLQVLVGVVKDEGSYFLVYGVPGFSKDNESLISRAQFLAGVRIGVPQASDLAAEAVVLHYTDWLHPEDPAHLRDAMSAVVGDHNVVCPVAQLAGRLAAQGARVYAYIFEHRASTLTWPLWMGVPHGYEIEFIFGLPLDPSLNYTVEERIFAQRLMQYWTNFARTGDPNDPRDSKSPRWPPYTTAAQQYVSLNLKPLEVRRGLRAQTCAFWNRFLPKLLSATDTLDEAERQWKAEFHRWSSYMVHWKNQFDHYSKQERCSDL
Procedure: Inhibitory Effect on Acetylcholinesterase
To DTNB (5,5′-dithiobis(2-nitrobenzoic acid)), acethylthiocholine (as a substrate) and a test compound was added the rat brain homogenate and incubated.

[2] = target: sigma receptor (guinea pig brain crude membrane fraction); assay: Sigma receptor binding assay (3H-DTG); conditions: inhibition of 3H-DTG binding to guinea pig brain crude membrane fraction, 25° C., 1 hour
Procedure: Sigma Receptor Binding Assay
(1) Preparation of Receptor
The washing procedure was repeated once more under the same conditions, and the resulting crude membrane fraction was subjected to the assay.
The specific binding and the non-specific binding in the absence of the test compound were determined in the same way as above except for using 50% DMSO solution instead of the test compound and using a 100 μM Haloperidol solution instead of the test compound, respectively.
(3) Determination of Inhibition
The inhibitions of the test compound at individual concentrations were determined from the ratio of the specific binding in the presence of the test compound to the specific binding in the absence thereof. The dose-response curve was regressed according to a logit-log model in which the ratio of the specific binding in the presence of the test compound to the specific binding in the absence thereof was subjected to logit transformation and plotted against the common logarithm value of each concentration.

| Structure (SMILES) | pIC50 [1] | pIC50 [2] | pIC50 ([1]; rat brain homogenate, acetylthiocholine substrate, DTNB, absorbance at 412 nm, read-out: Acetylcholinesterase inhibition IC50) |
| --- | --- | --- | --- |
| COc1cc2c(cc1OC)C(=O)C(CC1=CCN(Cc3ccccc3)CC1)C2 (stereo not shown) [Example 1, 1-benzyl-4-[(5,6-dimethoxy-1-indanon)-2-yl]methyl-1,2,3,6-tetrahydropyridine hydrochloride] | 8.38 | – | – |
| CCOc1cc2c(cc1OCC)C(=O)C(CC1=CCN(Cc3ccccc3)CC1)C2 (stereo not shown) [Example 2, 1-benzyl-4-[(5,6-diethoxy-1-indanon)-2-yl]methyl-1,2,3,6-tetrahydropyridine hydrochloride] | – | 8.30 | – |
| CCOc1cc2c(cc1OCC)C(=O)C(F)(CC1=CCN(Cc3ccccc3)CC1)C2 (stereo not shown) [Example 3, 1-benzyl-4-[(5,6-diethoxy-2-fluoro-1-indanon)-2-yl]methyl-1,2,3,6-tetrahydropyridine hydrochloride] | – | 8.33 | 9.40 |
